SMILES strings stand for the structures. pKi: −log10 of the molar value. A value given as a limit tells only on which side of the number the result lay.

Sequence of PLK1 (P53350 whole entry): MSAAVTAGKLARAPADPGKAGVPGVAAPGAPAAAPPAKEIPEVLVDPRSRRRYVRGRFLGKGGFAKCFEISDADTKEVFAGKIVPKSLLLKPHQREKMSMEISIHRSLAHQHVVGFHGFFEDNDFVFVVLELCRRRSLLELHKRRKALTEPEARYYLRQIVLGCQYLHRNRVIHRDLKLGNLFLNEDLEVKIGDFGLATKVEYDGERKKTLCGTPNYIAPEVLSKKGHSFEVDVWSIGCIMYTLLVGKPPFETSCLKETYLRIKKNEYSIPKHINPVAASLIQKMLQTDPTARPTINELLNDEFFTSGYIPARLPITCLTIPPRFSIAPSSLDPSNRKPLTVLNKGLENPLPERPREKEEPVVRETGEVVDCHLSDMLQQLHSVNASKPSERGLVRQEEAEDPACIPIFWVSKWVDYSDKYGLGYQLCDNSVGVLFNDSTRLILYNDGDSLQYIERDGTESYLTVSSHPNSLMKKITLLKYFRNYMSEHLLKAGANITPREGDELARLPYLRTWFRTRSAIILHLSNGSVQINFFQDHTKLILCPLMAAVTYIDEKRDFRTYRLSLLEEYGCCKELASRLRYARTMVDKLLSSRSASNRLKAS

This assay concerns the target PLK1 (Homo sapiens, UniProt P53350). As to the kind of experiment: PLK1 Inhibition Assay I (radioactive-phosphate incorporation). It counts as biochemical. The settings on record: Ki(app); PLK1 Inhibition Assay I or II (table does not say which). The method, boiled down: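 Ki(app) values came from non-linear regression of initial rates after background subtraction, with phosphopeptide measured by phosphocellulose filter binding and scintillation counting. PLK1 at 2 nM was preincubated with compound (typically from 10 μM, 2-fold dilutions) for 10 min, then run 240 min at 25° C with 350 μM [γ-33P]ATP and 450 μM peptide substrate in HEPES pH 7.5 buffer.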
On to `C[C@@H](Nc1ncc(C#N)c(-c2c[nH]c3ncc(C(F)(F)F)cc23)n1)[C@H]1CC[C@H](NS(C)(=O)=O)CC1` (single isomer, unassigned) [Compound I-202], for which the pKi (as a rule, the Ki on a negative log10 scale, so that one unit is a factor of ten) is greater than 8.52. Then `CC(Nc1ncc(C#N)c(-c2c[nH]c3ncc(C(F)(F)F)cc23)n1)C1CCN(S(C)(=O)=O)CC1` (centres unmarked) [Compound I-150, 2-(1-(1-(methylsulfonyl)piperidin-4-yl)ethylamino)-4-(5-(trifluoromethyl)-1H-pyrrolo[2,3-b]pyridin-3-yl)pyrimidine-5-carbonitrile], with greater than 8.52; and `CC(C)[C@H](CO)Nc1ncc(C#N)c(-c2c[nH]c3ncc(C(F)(F)F)cc23)n1` [Compound I-47, 2-((R)-1-hydroxy-3-methylbutan-2-ylamino)-4-(5-(trifluoromethyl)-1H-pyrrolo[2,3-b]pyridin-3-yl)pyrimidine-5-carbonitrile], with greater than 8.52.

As for `C[C@@H](Nc1ncc(C#N)c(-c2c[nH]c3ncc(C(F)(F)F)cc23)n1)C(=O)NC1CCCC1O` (stereo partly drawn) [IA-13, (2R)-2-(5-cyano-4-(5-(trifluoromethyl)-1H-pyrrolo[2,3-b]pyridin-3-yl)pyrimidin-2-ylamino)-N-(2-hydroxycyclopentyl)propanamide], the pKi was 7.40 to 8.52. Then `CC(=O)Nc1ccc(CNc2ncc(C#N)c(-c3c[nH]c4ncc(C(F)(F)F)cc34)n2)cc1` [Compound I-72, N-(4-((5-cyano-4-(5-(trifluoromethyl)-1H-pyrrolo[2,3-b]pyridin-3-yl)pyrimidin-2-ylamino)methyl)phenyl)acetamide], with 7.40 to 8.52.

For the compound `C[C@@H](Nc1ncc(C#N)c(-c2c[nH]c3ncc(C(F)(F)F)cc23)n1)c1ccc(CO)cc1` [Compound I-185, 2-((R)-1-(4-(hydroxymethyl)phenyl)ethylamino)-4-(5-(trifluoromethyl)-1H-pyrrolo[2,3-b]pyridin-3-yl)pyrimidine-5-carbonitrile], the pKi is greater than 8.52.

Regarding `C[C@@H](Nc1ncc(C#N)c(-c2c[nH]c3ncc(C(F)(F)F)cc23)n1)[C@H]1CC[C@@H](NC(=O)CO)CC1` [Compound I-212, N-((1S,4s)-4-((1R)-1-(5-cyano-4-(5-(trifluoromethyl)-1H-pyrrolo[2,3-b]pyridin-3-yl)pyrimidin-2-ylamino)ethyl)cyclohexyl)-2-hydroxyacetamide], the pKi is greater than 8.52. On to `C[C@H](CN1CCOCC1)Nc1ncc(C#N)c(-c2c[nH]c3ncc(C(F)(F)F)cc23)n1` [Compound I-132, 2-((R)-1-morpholinopropan-2-ylamino)-4-(5-(trifluoromethyl)-1H-pyrrolo[2,3-b]pyridin-3-yl)pyrimidine-5-carbonitrile], for which the pKi is 7.40 to 8.52. Turning to `N#Cc1cnc(NCc2cccnc2)nc1-c1c[nH]c2ncc(C(F)(F)F)cc12` [Compound I-14, 2-(pyridin-3-ylmethylamino)-4-(5-(trifluoromethyl)-1H-pyrrolo[2,3-b]pyridin-3-yl)pyrimidine-5-carbonitrile], the pKi was 7.40 to 8.52.

In the case of `CN(C)c1ccc(CNc2ncc(C#N)c(-c3c[nH]c4ncc(C(F)(F)F)cc34)n2)cc1` [Compound I-59, 2-(4-(dimethylamino)benzylamino)-4-(5-(trifluoromethyl)-1H-pyrrolo[2,3-b]pyridin-3-yl)pyrimidine-5-carbonitrile], the pKi is 7.40 to 8.52. Under `CCOc1cccc(Sc2ncc(C#N)c(-c3c[nH]c4ncc(C(F)(F)F)cc34)n2)c1` [II-9, 2-(3-ethoxyphenylthio)-4-(5-(trifluoromethyl)-1H-pyrrolo[2,3-b]pyridin-3-yl)pyrimidine-5-carbonitrile] stands less than 7.40.

Regarding `C[C@@H](Nc1ncc(C#N)c(-c2c[nH]c3ncc(C(F)(F)F)cc23)n1)C1CCN(C(=O)C2CNC2)CC1` [Compound I-227, 2-((R)-1-(1-(azetidine-3-carbonyl)piperidin-4-yl)ethylamino)-4-(5-(trifluoromethyl)-1H-pyrrolo[2,3-b]pyridin-3-yl)pyrimidine-5-carbonitrile], the pKi is greater than 8.52.

For the compound `C[C@@H](Nc1ncc(C#N)c(-c2c[nH]c3ncc(C(F)(F)F)cc23)n1)C1CCN(C(=O)CO)CC1` [Compound I-205, 2-((R)-1-(1-(2-hydroxyacetyl)piperidin-4-yl)ethylamino)-4-(5-(trifluoromethyl)-1H-pyrrolo[2,3-b]pyridin-3-yl)pyrimidine-5-carbonitrile], the pKi is greater than 8.52.

Take `C[C@@H](Nc1ncc(C#N)c(-c2c[nH]c3ncc(C(F)(F)F)cc23)n1)c1ccc(N2CCC(N(C)C)CC2)nc1` [Compound I-294, 2-((R)-1-(6-(4-(dimethylamino)piperidin-1-yl)pyridin-3-yl)ethylamino)-4-(5-(trifluoromethyl)-1H-pyrrolo[2,3-b]pyridin-3-yl)pyrimidine-5-carbonitrile]: the pKi was 7.40 to 8.52.

Take `C[C@@H](Nc1ncc(C#N)c(-c2c[nH]c3ncc(C(F)(F)F)cc23)n1)c1ccc(N2CCCC2=O)cc1` [Compound I-145, 2-((R)-1-(4-(2-oxopyrrolidin-1-yl)phenyl)ethylamino)-4-(5-(trifluoromethyl)-1H-pyrrolo[2,3-b]pyridin-3-yl)pyrimidine-5-carbonitrile]: the pKi is greater than 8.52. With `CC(Nc1ncc(C#N)c(-c2c[nH]c3ncc(C(F)(F)F)cc23)n1)c1ccc(N2CCOCC2)nc1` (centres unmarked) [Compound I-138, 2-(1-(6-morpholinopyridin-3-yl)ethylamino)-4-(5-(trifluoromethyl)-1H-pyrrolo[2,3-b]pyridin-3-yl)pyrimidine-5-carbonitrile], the pKi was greater than 8.52.

As to `CC(Nc1ncc(C#N)c(-c2c[nH]c3ncc(C(F)(F)F)cc23)n1)c1ccc(N2CCN(C(=O)OC(C)(C)C)CC2)cc1` (centres unmarked) [Compound I-123, tert-butyl 4-(4-(1-(5-cyano-4-(5-(trifluoromethyl)-1H-pyrrolo[2,3-b]pyridin-3-yl)pyrimidin-2-ylamino)ethyl)phenyl)piperazine-1-carboxylate], the pKi is 7.40 to 8.52. Under `CCC(Nc1ncc(C#N)c(-c2c[nH]c3ncc(C(F)(F)F)cc23)n1)C1CCN(S(=O)(=O)CC)CC1` (centres unmarked) [Compound I-175, 2-(1-(1-(ethylsulfonyl)piperidin-4-yl)propylamino)-4-(5-(trifluoromethyl)-1H-pyrrolo[2,3-b]pyridin-3-yl)pyrimidine-5-carbonitrile] stands greater than 8.52. Then `CCC1(O)CCN(c2ccc(C(C)Nc3ncc(C#N)c(-c4c[nH]c5ncc(C(F)(F)F)cc45)n3)cn2)CC1` (centres unmarked) [Compound I-197, 2-(1-(6-(4-ethyl-4-hydroxypiperidin-1-yl)pyridin-3-yl)ethylamino)-4-(5-(trifluoromethyl)-1H-pyrrolo[2,3-b]pyridin-3-yl)pyrimidine-5-carbonitrile], with 7.40 to 8.52; and `C[C@@H](Nc1ncc(C#N)c(-c2c[nH]c3ncc(C(F)(F)F)cc23)n1)C1CCN(C(=O)CN)CC1` [Compound I-210, 2-((R)-1-(1-(2-aminoacetyl)piperidin-4-yl)ethylamino)-4-(5-(trifluoromethyl)-1H-pyrrolo[2,3-b]pyridin-3-yl)pyrimidine-5-carbonitrile], with greater than 8.52; and `CCS(=O)(=O)N1CCC(C(C)Nc2ncc(C#N)c(-c3c[nH]c4ncc(C(F)(F)F)cc34)n2)CC1` (centres unmarked) [Compound I-153, 2-(1-(1-(ethylsulfonyl)piperidin-4-yl)ethylamino)-4-(5-(trifluoromethyl)-1H-pyrrolo[2,3-b]pyridin-3-yl)pyrimidine-5-carbonitrile], with greater than 8.52. Then `C[C@@H](Nc1ncc(C#N)c(-c2c[nH]c3ncc(C(F)(F)F)cc23)n1)C1CCN(C(=O)CC#N)CC1` [Compound I-233, 2-((R)-1-(1-(2-cyanoacetyl)piperidin-4-yl)ethylamino)-4-(5-(trifluoromethyl)-1H-pyrrolo[2,3-b]pyridin-3-yl)pyrimidine-5-carbonitrile], with greater than 8.52; and `CC(Nc1ncc(C#N)c(-c2c[nH]c3ncc(C(F)(F)F)cc23)n1)C1CN(C(=O)CN)C1` (centres unmarked) [Compound I-235, 2-(1-(1-(2-aminoacetyl)azetidin-3-yl)ethylamino)-4-(5-(trifluoromethyl)-1H-pyrrolo[2,3-b]pyridin-3-yl)pyrimidine-5-carbonitrile], with less than 7.40.

Turning to `C[C@@H](N)C(=O)N1CCC([C@@H](C)Nc2ncc(C#N)c(-c3c[nH]c4ncc(C(F)(F)F)cc34)n2)CC1` [Compound I-225, 2-((R)-1-(1-((R)-2-aminopropanoyl)piperidin-4-yl)ethylamino)-4-(5-(trifluoromethyl)-1H-pyrrolo[2,3-b]pyridin-3-yl)pyrimidine-5-carbonitrile], the pKi is greater than 8.52. `CCN1CCN(c2ccc([C@@H](C)Nc3ncc(C#N)c(-c4c[nH]c5ncc(C(F)(F)F)cc45)n3)cn2)CC1` [Compound I-285, 2-((R)-1-(6-(4-ethylpiperazin-1-yl)pyridin-3-yl)ethylamino)-4-(5-(trifluoromethyl)-1H-pyrrolo[2,3-b]pyridin-3-yl)pyrimidine-5-carbonitrile]: the pKi is greater than 8.52.

For `C=C1CC(C(C)Nc2ncc(C#N)c(-c3c[nH]c4ncc(C(F)(F)F)cc34)n2)C1` (centres unmarked) [Compound I-214, 2-(1-(3-methylenecyclobutyl)ethylamino)-4-(5-(trifluoromethyl)-1H-pyrrolo[2,3-b]pyridin-3-yl)pyrimidine-5-carbonitrile], the pKi was 7.40 to 8.52. Then `CNC(=O)C(C)(C)Nc1ncc(C#N)c(-c2c[nH]c3ncc(Cl)cc23)n1` [IA-8, 2-(4-(5-chloro-1H-pyrrolo[2,3-b]pyridin-3-yl)-5-cyanopyrimidin-2-ylamino)-N,2-dimethylpropanamide], with less than 7.40; and `N#Cc1cnc(NCc2nc3ccccc3[nH]2)nc1-c1c[nH]c2ncc(C(F)(F)F)cc12` [Compound I-30, 2-((1H-benzo[d]imidazol-2-yl)methylamino)-4-(5-(trifluoromethyl)-1H-pyrrolo[2,3-b]pyridin-3-yl)pyrimidine-5-carbonitrile], with less than 7.40. Then `CCCC(C)Nc1ncc(C#N)c(-c2c[nH]c3ncc(C(F)(F)F)cc23)n1` (centres unmarked) [Compound I-35, 2-(pentan-2-ylamino)-4-(5-(trifluoromethyl)-1H-pyrrolo[2,3-b]pyridin-3-yl)pyrimidine-5-carbonitrile], with 7.40 to 8.52.

For the origin of these results see US8530489B2 (Vertex Pharmaceuticals Incorporated, priority 2006, dated 2013).
